Laboratory results from the NIST ThermoML archive (doi:10.1016/j.jct.2011.09.022).

Conditions: Liquid, Closed cell (Static) method

C1CCOC1 [tetrahydrofuran]
Conditions	vapor or sublimation pressure [kPa]
275.99 K	7.099
276.53 K	7.556
277.76 K	7.839
278.19 K	8.328
279.41 K	8.614
279.86 K	9.036
280.16 K	8.932
281.95 K	9.957
283.07 K	10.55
283.15 K	10.32
283.36 K	10.9
284.88 K	11.68
286.55 K	12.44
288.5 K	13.79
289 K	14
289.66 K	14.48
291.04 K	15.65
292.31 K	16.65
293.3 K	17.43
296.05 K	19.72
296.84 K	20.37
297.09 K	20.65
298.15 K	21.5
298.72 K	22.24
300.57 K	23.84
301.73 K	25.28
302.96 K	26.62
303.23 K	26.87
304.04 K	27.79
305.35 K	29.43
306.54 K	30.77
308.07 K	32.49
310.2 K	35.55
310.86 K	36.65
311.9 K	38.54
313.12 K	40.13
313.18 K	40.09
315.86 K	44.65
317.71 K	47.86
319.58 K	51.31
321.57 K	55.34
323.59 K	59.46

CC#N [acetonitrile]
Conditions	vapor or sublimation pressure [kPa]
278.72 K	4.443
278.88 K	4.539
278.98 K	4.513
279.81 K	4.732
280.27 K	4.859
281.91 K	5.339
283.17 K	5.637
283.56 K	5.838
283.81 K	5.916
284.56 K	6.102
285.7 K	6.473
286.17 K	6.59
286.61 K	6.754
288.72 K	7.498
288.8 K	7.559
288.83 K	7.594
289.39 K	7.802
290.09 K	8.032
290.6 K	8.302
291.36 K	8.598
292.48 K	9.163
293.21 K	9.408
293.92 K	9.82
294.4 K	10.03
295.33 K	10.43
295.94 K	10.77
296.44 K	11.02
297.48 K	11.6
298.3 K	12.05
298.67 K	12.17
299.42 K	12.61
301.19 K	13.61
302.14 K	14.18
304.16 K	15.57
305.01 K	16.1
306.04 K	16.96
306.9 K	17.53
307.95 K	18.22
309.92 K	19.85
310.71 K	20.49
311.79 K	21.38
311.88 K	21.55
312.81 K	22.5
313.77 K	23.42
314.79 K	24.17
315.71 K	25.1
315.79 K	25.15
316.63 K	26.11
317.72 K	27.21
318.66 K	28.27
319.69 K	29.39
320.67 K	30.52
321.65 K	31.73
322.54 K	32.95
322.56 K	32.94
322.64 K	33.19
323.64 K	34.49
324.59 K	35.65
325.58 K	37
